Measurements as given in patent US9815847B2 (Icahn School of Medicine at Mount Sinai, priority 2013, dated 2017).

Experiments:
K562 = experiment: Cytotoxicity on K562 cancer cell line; format: cell-based; conditions: Homo sapiens; K562 chronic myelogenous leukemia; 96 h; 0.01-100 μM
Experimental: (§1) The effect of the compounds described herein on tumor cells was determined by the assay described by Latham et al., Oncogene 12:827-837 (1996). Tumor cells K562 (chronic myelogenous leukemia; leukemia cell line +ve for Bcr-Abl) or DU145 (prostate cancer) were plated in 12-well dishes at a cell density of 2.5×10^4 cells per well. The plated cells were treated 24 h. later with a DMSO solution of a compound as described herein at multiple concentrations ranging from 0.01 μM to 100 μM. The plates were examined 96 h. later under an inverted microscope, Olympus CK-2 using a 10× objective, and compound activity was noted by physical observation. When necessary, the total number of viable cells was determined by trypsinizing the wells and counting the number of viable cells, as determined by trypan blue exclusion, using a hemacytometer.

DU145 = experiment: Cytotoxicity on DU145 cancer cell line; format: cell-based; conditions: Homo sapiens, DU-145; DU145 prostate cancer; 96 h; 0.01-100 μM
Experimental: as §1

## CN1CCN(c2ccc(Nc3ncc(/C=C/C#N)c(N)n3)cc2)CC1 [Compound 8a, 3-{4-Amino-2-[4-(4-methylpiperazin-1-yl)phenylamino]pyrimidin-5-yl}acrylonitrile]
K562
  IC50: 1000 to 25000 nM
DU145
  IC50: 1000 to 25000 nM

## COc1ccc(S(=O)(=O)/C=C/c2cnc(N3CCOCC3)nc2NC2CCCC2)cc1 [Compound 15o, (E)-N-Cyclopentyl-5-{2-[(4-methoxyphenyl)sulfonyl]vinyl}-2-morpholinopyrimidin-4-amine]
K562
  IC50: 1000 to 25000 nM
DU145
  IC50: 1000 to 25000 nM

## CNc1nc(Nc2ccc3cc[nH]c3c2)ncc1/C=C/S(=O)(=O)c1ccc(F)cc1F [Compound 15c, 5-{2-[2,4-(Difluorophenyl)sulfonyl]vinyl}-N^2-(1H-indol-6-yl)-N^4-methylpyrimidine-2,4-diamine]
K562
  IC50: 1000 to 25000 nM
DU145
  IC50: 1000 to 25000 nM

## N#C/C=C/c1cnc(Nc2ccc(N3CCOCC3)cc2)nc1NCC1CC1 [Compound 8r, 3-{4-[N-(Cyclopropylmethyl)amino]-2-[4-(morpholin-4-yl)phenylamino]pyrimidin-5-yl}acrylonitrile]
K562
  IC50: < 1000 nM
DU145
  IC50: < 1000 nM

## CN1CCN(c2ccc(Nc3ncc(/C=C/C#N)c(NC4CCCC4)n3)nc2)CC1 [Compound 8q, 3-(4-(Cyclopentylamino)-2-((5-(4-methylpiperazin-1-yl)pyridin-2-yl)amino)pyrimidin-5-yl)acrylonitrile]
K562
  IC50: < 1000 nM
DU145
  IC50: < 1000 nM

## CCN1CCN(c2ccc(Nc3ncc(/C=C/C#N)c(NCC4CC4)n3)cc2)CC1 [Compound 8t, 3-{4-[(Cyclopropylmethyl)amino]-2-[4-(4-ethylpiperazin-1-yl)phenylamino]pyrimidin-5-yl}acrylonitrile]
K562
  IC50: < 1000 nM
DU145
  IC50: < 1000 nM

## COc1cc(N2CCN(C)CC2)ccc1Nc1ncc(/C=C/C#N)c(NC2CCCC2)n1 [Compound 8bb, (E)-3-[4-(Cyclopentylamino)-2-{[2-methoxy-4-(4-methylpiperazin-1-yl)phenyl]amino}pyrimidin-5-yl]acrylonitrile]
K562
  IC50: 1000 to 25000 nM
DU145
  IC50: 1000 to 25000 nM

## CN1CCN(c2ccc(Nc3ncc(/C=C/C#N)c(NC4CCCCC4)n3)cc2)CC1 [Compound 8i, 3-{4-Cyclohexylamino-2-[4-(4-methylpiperazin-1-yl)phenylamino]pyrimidin-5-yl}acrylonitrile]
K562
  IC50: < 1000 nM
DU145
  IC50: 1000 to 25000 nM

## CN1CCN(c2ccc(Nc3ncc(/C=C/C#N)c(NC4CC4)n3)cc2)CC1 [Compound 8g, 3-{4-Cyclopropylamino-2-[4-(4-methylpiperazin-1-yl)phenylamino]pyrimidin-5-yl}acrylonitrile]
K562
  IC50: < 1000 nM
DU145
  IC50: < 1000 nM

## CNc1nc(Nc2ccc3[nH]ccc3c2)ncc1/C=C/C#N [Compound 8m, 3-[2-(1H-Indol-5-ylamino)-4-(methylamino)pyrimidin-5-yl]acrylonitrile]
K562
  IC50: < 1000 nM
DU145
  IC50: < 1000 nM

## CCNc1nc(Nc2ccc(N3CCN(C)CC3)cc2)ncc1/C=C/C#N [Compound 8c, 3-{4-Ethylamino-2-[4-(4-methylpiperazin-1-yl)phenylamino]pyrimidin-5-yl}acrylonitrile]
K562
  IC50: < 1000 nM
DU145
  IC50: < 1000 nM

## CN1CCN(c2ccc(Nc3ncc(/C=C/C#N)c(N4CCCC4)n3)cc2)CC1 [Compound 8w, 3-{2-[4-(4-Methylpiperazin-1-yl)phenylamino]-4-(pyrrolidin-1-yl)pyrimidin-5-yl}acrylonitrile]
K562
  IC50: 1000 to 25000 nM
DU145
  IC50: 1000 to 25000 nM

## COc1ccc(Nc2ncc(/C=C/S(=O)(=O)c3ccc(OC)cc3)c(NC3CCCC3)n2)cc1 [Compound 15m, (E)-N^4-Cyclopentyl-N^2-(4-methoxyphenyl)-5-{2-[(4-methoxyphenyl)sulfonyl]vinyl}pyrimidine-2,4-diamine]
K562
  IC50: 1000 to 25000 nM
DU145
  IC50: 1000 to 25000 nM

## CN1CCN(c2ccc(Nc3ncc(/C=C/C#N)c(NCC4CC4)n3)cc2)CC1 [Compound 8f, 3-{4-(Cyclopropylmethyl)amino-2-[4-(4-methylpiperazin-1-yl)phenylamino]pyrimidin-5-yl}acrylonitrile]
K562
  IC50: < 1000 nM
DU145
  IC50: < 1000 nM

## N#C/C=C/c1cnc(Nc2ccc3[nH]ccc3c2)nc1NC1CCCC1 [Compound 8k, 3-[4-Cyclopentylamino-2-(1H-indol-5-ylamino)pyrimidin-5-yl]acrylonitrile]
K562
  IC50: < 1000 nM
DU145
  IC50: 1000 to 25000 nM

## CN1CCC(c2ccc(Nc3ncc(/C=C/C#N)c(NC4CCCC4)n3)cc2)CC1 [Compound 8l, 3-{4-Cyclopentylamino-2-[4-(1-methylpiperidin-4-yl)phenylamino]pyrimidin-5-yl}acrylonitrile]
K562
  IC50: 1000 to 25000 nM
DU145
  IC50: 1000 to 25000 nM

## CNc1nc(Nc2nc3ccccc3[nH]2)ncc1/C=C/S(=O)(=O)c1ccc(F)cc1F [Compound 15h, (E)-N^2-(1H-Benzo[d]imidazol-2-yl)-5-{2-[(2,4-difluorophenyl)sulfonyl]vinyl}-N^4-methylpyrimidine-2,4-diamine]
K562
  IC50: 1000 to 25000 nM
DU145
  IC50: 1000 to 25000 nM

## CNc1nc(Nc2cc(OC)c(OC)c(OC)c2)ncc1/C=C/S(=O)(=O)c1ccc(F)cc1F [Compound 15g, (E)-5-{2-[(2,4-Difluorophenyl)sulfonyl]vinyl}-N^4-methyl-N^2-(3,4,5-trimethoxyphenyl)pyrimidine-2,4-diamine]
K562
  IC50: 50000 to 100000 nM
DU145
  IC50: 1000 to 25000 nM
